Measurements reported in publication PMC6021035, “Insights into biological activity of ureidoamides with primaquine and amino acid moieties” (Journal of Enzyme Inhibition and Medicinal Chemistry, 2018).
≈ marks a conversion by molar mass, not a printed value.

Experiments:
[1] = system: Bacillus cereus ATCC 11778; experiment: MIC determination (broth micro-dilution); type: cell-based; conditions: ATCC11778
Method: (§1) Before analysis, compounds 5a–f were dissolved in 96% ethanol in a concentration of 2 mg/ml as stock solutions. Inoculums were prepared with fresh cultures of microbial strains, cultured on tryptic-soy agar or Sabouraud 2% (m/v) dextrose agar for 18 h (48–72 h for fungi) at 30 °C with physiological saline containing approximately […]. Inoculum density (0.5 McFarland units) was adjusted with a bio Mériex (France) densitometer. Minimum inhibitory concentration (MIC) was determined by the twofold micro-dilution method in Mu¨ller–Hinton broth for bacterial strains and RPMI 1640 + 2% m/v dextrose for fungi according to the EUCAST recommendations in a sterile 96-well flat-bottom plastic tissue culture plate. MIC was determined using a linear regression curve after incubation of compounds and reading the optical density at 570 nm using an iEMS microplate reader. […] All tests were performed in triplicate and expressed as the mean.

[2] = system: Burkholderia caepacia ATCC 25416; experiment: MIC determination (broth micro-dilution); type: cell-based; conditions: ATCC25416
Method: as §1

[3] = system: Candida albicans ATCC 10231; experiment: MIC determination (broth micro-dilution); type: cell-based; conditions: ATCC10231
Method: as §1

[4] = system: Candida parapsylosis ATCC 22019; experiment: MIC determination (broth micro-dilution); type: cell-based; conditions: ATCC22019
Method: as §1

[5] = system: Kocuria rhizophila ATCC 9341; experiment: MIC determination (broth micro-dilution); type: cell-based; conditions: ATCC9341
Method: as §1

[6] = system: Staphylococcus aureus ATCC 25213; experiment: MIC determination (broth micro-dilution); type: cell-based; conditions: ATCC25213
Method: as §1

[7] = system: Candida albicans ATCC 90028; experiment: MIC determination (broth micro-dilution); type: cell-based; conditions: ATCC90028
Method: as §1

[8] = system: Bacillus subtilis ATCC 6633; experiment: MIC determination (broth micro-dilution); type: cell-based; conditions: ATCC6633
Method: as §1

[9] = system: Enterococcus hyrae ATCC 8043; experiment: MIC determination (broth micro-dilution); type: cell-based; conditions: ATCC8043
Method: as §1

[10] = system: Aspergillus niger ATCC 16404; experiment: MIC determination (broth micro-dilution); type: cell-based; conditions: ATCC16404
Method: as §1

[11] = system: Staphylococcus aureus ATCC 25923; experiment: MIC determination (broth micro-dilution); type: cell-based; conditions: ATCC25923
Method: as §1

[12] = system: Pseudomonas aeruginosa ATCC 9027; experiment: MIC determination (broth micro-dilution); type: cell-based; conditions: ATCC9027
Method: as §1

[13] = system: Candida tropicalis ATCC 750; experiment: MIC determination (broth micro-dilution); type: cell-based; conditions: ATCC750
Method: as §1

[14] = system: Escherichia coli ATCC 8739; experiment: MIC determination (broth micro-dilution); type: cell-based; conditions: ATCC8739
Method: as §1

Candida kefyr ATCC 2512 = experiment: MIC determination (broth micro-dilution); type: cell-based; conditions: Kluyveromyces marxianus, ATCC2512
Method: as §1

[15] = system: Pseudomonas aeruginosa ATCC 27853; experiment: MIC determination (broth micro-dilution); type: cell-based; conditions: ATCC27853
Method: as §1

[16] = system: Escherichia coli ATCC 10536; experiment: MIC determination (broth micro-dilution); type: cell-based; conditions: ATCC10536
Method: as §1

[17] = system: Enterococcus faecalis ATCC 29212; experiment: MIC determination (broth micro-dilution); type: cell-based; conditions: ATCC29212
Method: as §1

[18] = system: Candida krusei ATCC 14243; experiment: MIC determination (broth micro-dilution); type: cell-based; conditions: Pichia kudriavzevii, ATCC14243
Method: as §1

[19] = system: Issatchenkia orientalis Kudrjanzev ATCC 6258; experiment: MIC determination (broth micro-dilution); type: cell-based; conditions: Pichia kudriavzevii, ATCC6258
Method: as §1

[20] = system: Staphylococcus aureus ATCC 6538; experiment: MIC determination (broth micro-dilution); type: cell-based; conditions: ATCC6538
Method: as §1

S. aureus strains = experiment: MIC determination, S. aureus strains; type: cell-based, Staphylococcus aureus
Method: as §1

[21] = biological target: T1, soybean lipoxygenase (LOX) (Glycine max, UniProt P08170); experiment: In vitro soybean lipoxygenase (LOX) inhibition; type: biochemical; conditions: sodium linoleate 0.1 mM, read-out: LOX inhibition (IC50 μM) ± SD
T1 construct: purchased Sigma-Aldrich
T1 sequence (P08170 1-839): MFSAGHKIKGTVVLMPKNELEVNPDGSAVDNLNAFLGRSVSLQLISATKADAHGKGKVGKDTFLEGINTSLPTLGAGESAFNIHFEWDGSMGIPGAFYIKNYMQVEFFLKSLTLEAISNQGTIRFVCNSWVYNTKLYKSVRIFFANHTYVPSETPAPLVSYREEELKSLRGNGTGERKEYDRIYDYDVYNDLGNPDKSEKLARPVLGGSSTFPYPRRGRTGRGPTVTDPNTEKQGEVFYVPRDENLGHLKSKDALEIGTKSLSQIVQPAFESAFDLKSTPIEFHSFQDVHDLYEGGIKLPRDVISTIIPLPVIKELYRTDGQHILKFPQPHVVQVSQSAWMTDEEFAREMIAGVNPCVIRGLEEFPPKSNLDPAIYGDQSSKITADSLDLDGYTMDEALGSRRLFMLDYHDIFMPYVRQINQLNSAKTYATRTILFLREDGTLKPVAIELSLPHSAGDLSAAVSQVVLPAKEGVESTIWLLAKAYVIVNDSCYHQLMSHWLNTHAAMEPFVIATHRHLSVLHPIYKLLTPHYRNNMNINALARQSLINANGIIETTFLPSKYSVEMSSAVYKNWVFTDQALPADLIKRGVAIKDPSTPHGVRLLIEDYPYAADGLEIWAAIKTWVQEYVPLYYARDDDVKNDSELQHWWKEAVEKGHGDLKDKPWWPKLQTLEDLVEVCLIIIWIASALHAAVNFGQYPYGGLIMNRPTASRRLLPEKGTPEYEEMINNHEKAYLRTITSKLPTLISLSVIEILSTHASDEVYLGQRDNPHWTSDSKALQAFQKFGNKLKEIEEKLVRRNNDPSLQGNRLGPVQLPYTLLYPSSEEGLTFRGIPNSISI
Method: In vitro LOX inhibition assay was accomplished as described previously. Test compounds (stock solutions 10 mM in DMSO) were incubated at room temperature with sodium linoleate (0.1 mM) and 0.2 ml of LOX solution (0.1 mg in 10 ml saline). Conversion of sodium linoleate to 13-hydroperoxylinoleic acid was measured at 234 nm and compared to the reference inhibitor. Several concentrations were used for IC50 determination.

| Compound | MIC [1] [µg/mL] | MIC [2] [µg/mL] | MIC [3] [µg/mL] | MIC [4] [µg/mL] | MIC [5] [µg/mL] | MIC [6] [µg/mL] | MIC [7] [µg/mL] | MIC [8] [µg/mL] | MIC [9] [µg/mL] | MIC [10] [µg/mL] | MIC [11] [µg/mL] | MIC [12] [µg/mL] | MIC [13] [µg/mL] | MIC [14] [µg/mL] | MIC (Candida kefyr ATCC 2512) [µg/mL] | MIC [15] [µg/mL] | MIC [16] [µg/mL] | MIC [17] [µg/mL] | MIC [18] [µg/mL] | MIC [19] [µg/mL] | other results |
| --- | --- | --- | --- | --- | --- | --- | --- | --- | --- | --- | --- | --- | --- | --- | --- | --- | --- | --- | --- | --- | --- |
| COc1cc(NC(C)CCCN)c2ncccc2c1 (stereo not shown) [PQ, 8-[(4-amino-1-methylbutyl)amino]-6-methoxyquinoline, reference compound] | 70 (≈ 270 µM) | 80 (≈ 308 µM) | 90 (≈ 347 µM) | 25 (≈ 96.4 µM) | 50 (≈ 193 µM) | 70 (≈ 270 µM) | > 100 | 80 (≈ 308 µM) | > 100 | > 100 | 45 (≈ 174 µM) | 70 (≈ 270 µM) | > 100 | 40 (≈ 154 µM) | 40 (≈ 154 µM) | 65 (≈ 251 µM) | 65 (≈ 251 µM) | > 100 | > 100 | > 100 | MIC [20]: 50 µg/mL (≈ 193 µM) |
| COc1cc(NC(C)CCCNC(=O)NC(C(=O)N(C)C(c2ccccc2)c2ccccc2)c2ccccc2)c2ncccc2c1 (stereo not shown) [Compound 5b, N-(diphenylmethyl)-2-[({4-[(6-methoxyquinolin-8-yl)amino]pentyl}carbamoyl)amino]-N-methyl-2-phenylacetamide] | > 100 | > 100 | > 100 | > 100 | > 100 | 60 (≈ 97.4 µM) | > 100 | > 100 | > 100 | > 100 | 65 (≈ 106 µM) | > 100 | > 100 | > 100 | > 100 | > 100 | > 100 | > 100 | > 100 | > 100 | MIC [20]: > 100 µg/mL; IC50 [21]: 69 ± 2 µM |

Second part, led by results:

| MIC [1] [µg/mL] | MIC [2] [µg/mL] | MIC [3] [µg/mL] | MIC [4] [µg/mL] | MIC [5] [µg/mL] | MIC [6] [µg/mL] | MIC [7] [µg/mL] | MIC [8] [µg/mL] | MIC [9] [µg/mL] | MIC [10] [µg/mL] | MIC [11] [µg/mL] | MIC [12] [µg/mL] | MIC [13] [µg/mL] | MIC [14] [µg/mL] | MIC (Candida kefyr ATCC 2512) [µg/mL] | MIC [15] [µg/mL] | MIC [16] [µg/mL] | MIC [17] [µg/mL] | MIC [18] [µg/mL] | MIC [19] [µg/mL] | Compound | other results |
| --- | --- | --- | --- | --- | --- | --- | --- | --- | --- | --- | --- | --- | --- | --- | --- | --- | --- | --- | --- | --- | --- |
| 50 (≈ 78.6 µM) | > 100 | > 100 | > 100 | > 100 | 12.5 (≈ 19.6 µM) | > 100 | 65 (≈ 102 µM) | > 100 | > 100 | 25 (≈ 39.3 µM) | 65 (≈ 102 µM) | > 100 | 65 (≈ 102 µM) | > 100 | 50 (≈ 78.6 µM) | 60 (≈ 94.3 µM) | > 100 | > 100 | > 100 | COc1cc(NC(C)CCCNC(=O)NC(C(=O)NC(c2ccccc2)c2ccccc2)c2ccc(Cl)cc2)c2ncccc2c1 (stereo not shown) [Compound 5d, 2–(4-chlorophenyl)-N-(diphenylmethyl)-2-[({4-[(6-methoxyquinolin-8-yl)amino]pentyl}carbamoyl)amino]acetamide] | MIC [20]: 25 µg/mL (≈ 39.3 µM); MIC (S. aureus strains; Staphylococcus aureus, S. aureus strains, lowest value quoted in text): 6.5 µg/mL (≈ 10.2 µM); MIC range (S. aureus strains; tested Staphylococcus spp.): 12.5 to 25 µg/mL; IC50 [21]: 41.5 ± 3.1 µM; melting point: 180 to 183 °C |
| > 100 | 70 (≈ 110 µM) | > 100 | > 100 | > 100 | > 100 | > 100 | > 100 | > 100 | > 100 | > 100 | 50 (≈ 78.6 µM) | > 100 | 60 (≈ 94.3 µM) | > 100 | 25 (≈ 39.3 µM) | 60 (≈ 94.3 µM) | > 100 | > 100 | > 100 | COc1cc(NC(C)CCCNC(=O)NC(C(=O)NC(c2ccccc2)c2ccc(Cl)cc2)c2ccccc2)c2ncccc2c1 (stereo not shown) [Compound 5c, N-[(4-chlorophenyl)(phenyl)methyl]-2-[({4-[(6-methoxyquinolin-8-yl)amino]pentyl}carbamoyl)amino]-2-phenylacetamide] | MIC [20]: > 100 µg/mL; IC50 [21]: 40 ± 1.5 µM |
| > 100 | > 100 | > 100 | > 100 | > 100 | > 100 | > 100 | > 100 | > 100 | > 100 | > 100 | > 100 | > 100 | > 100 | > 100 | > 100 | > 100 | > 100 | > 100 | > 100 | COc1ccc(C(=NNC(=O)C(NC(=O)NCCCC(C)Nc2cc(OC)cc3cccnc23)c2ccc(Cl)cc2)c2ccccc2)cc1 (stereo not shown) [Compound 5f, 3-[(4-chlorophenyl)({N'-[(4-methoxyphenyl)(phenyl)methylidene]hydrazinecarbonyl})methyl]-1-{4-[(6-methoxyquinolin-8-yl)amino]pentyl}urea] | MIC [20]: > 100 µg/mL; IC50 [21]: 67.5 ± 1.1 µM |
